Data from US20110250184A1, “METHODS FOR DETERMINING EFFICACY OF A THERAPEUTIC REGIMEN AGAINST DELETERIOUS EFFECTS OF CYTOTOXIC AGENTS IN HUMAN” (priority 2008, published 2011).
Entries after “also recorded” stand apart in the source; their conditions may differ.

Columns and labels:
[1] = tested on: apoptosis-specific signaling events; assay: Signaling studies, apoptosis-specific signaling after radiation; format: cell-based; settings: treatment prior to radiation exposure
Excerpt: To analyze and investigate the efficacy of a cytotoxic protective drug, biological assays were developed that assisted in determination of the mechanism of action of these drugs at the intracellular level. In the case of ON 01210.Na, certain components of cellular and DNA damage-sensing, repair, and apoptosis pathways were studied in more detail.

CYP450 2C9 = CYP450 2C9 (Homo sapiens, UniProt P11712); format: in vitro ADME
Description: Additional biochemical studies were performed to screen for potential secondary or non-specific activities. ON 01210.Na was subjected to in vitro primary screening across a broad panel of 67 radioligand receptor binding assays and five cytochrome P450 enzymes: 1A2, 2C9, 2C19, 3A4, and 2D6. […] Only one cytochrome assay, CYP450 2C9, in which the activity was […] 98%, yielded a response that was considered significant. Thus, as a preliminary screen for safety and selectivity profiling, no targets were identified.

[2] = tested on: bone marrow of irradiated mice; assay: In vivo radiation protection assay, bone marrow colony forming units of irradiated mice; set-up: species or system C3H/HEJ mice; settings: for Differential colony counts, GM / Differential colony counts, Granulocytes / Differential colony counts, Macrophages / Differential colony counts, Total CFU: 500 mg/kg sc -24 h and -15 min
Description: (§1) FIG. 4. ON 01210.Na protects the bone marrow of irradiated mice. A. Mice were injected with 500 mg/kg of ON 01210.Na formulated in 1% Polysorbate 80/K-phosphate buffer or vehicle alone by sc injections minus 24 hrs and minus 15 minutes before 5.5 Gy of whole body ionizing radiation treatment. Whole blood was collected on the indicted days and WBC counts were performed following RBC lysis. The data is plotted as the average of three mice per group +/−SEM (N:3×3=9 plates). B. Pictures of representative plates. […] C. White blood cell counts. Whole blood was collected on the indicted days and WBC counts were performed following RBC lysis. The data is plotted as the average of 3 mice per group±SEM (N=3).
(§2) Since survival of animals after radiation exposure depends largely on the protection of the hematopoietic system, the effect of ON 01210.Na treatment on hematopoietic cell survival was investigated using various schedules before radiation exposure. The radioprotection of hematopoietic cells by ON 01210.Na was studied in an in vivo assay using a sub lethal dose of radiation. C3H/HEJ mice were treated with ON 01210.Na following various schedules in order to determine the optimal dose and schedule of ON 01210.Na for maximum protection of the hematopoietic system in mice.
as §1, with “A.” for “FIG. 4. ON 01210.Na protects the bone marrow of irradiated mice. A.”, “group+/−SEM” for “group +/−SEM”, “(N=3). Lineage specific protection was studied by identifying and tabulating three lineages, granulocytes, macrophages and granulocyte-macrophages (GM).” for “(N=3).”
In order to determine the optimal schedule of ON 01210.Na treatment for maximum protection of the bone marrow, bone marrow protection of mice injected with a single dose of ON 01210.Na at minus 15 minutes or minus 4 hours was compared with mice injected with two doses described above. The most efficient protection of the bone marrow was found when the mice were injected at minus 24 hours and minus 15 minutes before radiation exposure. […] These experiments imply that a single injection just before exposure will protect and increase the recovery of bone marrow cells after radiation exposure.

white blood cells = assay: White blood cell counts of irradiated mice; format: in vivo, C3H/HEJ mice
Description: as §1
A. Mice were injected with 500 mg/kg of ON 01210.Na formulated in 1% Polysorbate 80/K-phosphate buffer or vehicle alone by sc injections minus 24 hrs and minus 15 minutes before 5.5 Gy of whole body ionizing radiation treatment. Whole blood was collected on the indicted days and WBC counts were performed following RBC lysis. The data is plotted as the average of three mice per group+/−SEM (N:3×3=9 plates). […]
In addition to examining the ability of ON 01210.Na to protect bone marrow cells, the protection of peripheral white blood cells was also examined. Whole blood was collected and the total number of white blood cells was determined at various times after radiation exposure.

[3] = tested on: mice exposed to lethal doses of whole body ionizing radiation; assay: In vivo survival studies in mice after lethal whole body radiation (30-day survival model)
Description: as §2
In vivo survival studies in mice were designed to explore the effects of dose and schedule on survival, based on the well-established 30-day survival model, establish a dose reduction factor (DRF) for ON 01210.Na, compare two different formulations (suspension vs. solution) of ON 01210.Na; and show protection and recovery benefits of ON 01210.Na to the hematopoietic system and gastrointestinal tract of treated mice.
Two dose reduction factor (DRF) studies determined that the DRF for ON 01210.Na was 1.14 to 1.16.

Chain of CYP450 2C9 (P11712 whole entry): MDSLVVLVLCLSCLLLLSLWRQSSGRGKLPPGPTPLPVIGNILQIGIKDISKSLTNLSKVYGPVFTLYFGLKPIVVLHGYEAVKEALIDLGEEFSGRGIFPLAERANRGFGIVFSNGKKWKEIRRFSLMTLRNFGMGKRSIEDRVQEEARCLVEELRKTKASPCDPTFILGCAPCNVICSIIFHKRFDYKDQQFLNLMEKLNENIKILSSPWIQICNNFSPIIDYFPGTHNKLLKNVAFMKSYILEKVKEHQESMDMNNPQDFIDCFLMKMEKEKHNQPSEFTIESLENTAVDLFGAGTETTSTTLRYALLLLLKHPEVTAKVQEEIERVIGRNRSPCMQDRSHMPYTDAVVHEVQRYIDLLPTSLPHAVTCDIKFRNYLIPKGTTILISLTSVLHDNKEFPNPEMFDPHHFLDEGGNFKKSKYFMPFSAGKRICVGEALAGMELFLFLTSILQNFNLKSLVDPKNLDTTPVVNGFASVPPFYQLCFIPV

SMILES: O=C([O-])c1ccc(/C=C/S(=O)(=O)Cc2ccc(Cl)cc2)cc1.[Na+] [ON 01210.Na, E-4-Carboxystyryl-4-chlorobenzylsulfone sodium salt]
- level of apoptosis-specific signaling events [1]: reduced the level of apoptosis-specific signaling events
- CYP450 2C9 activity, stimulation (CYP450 2C9): 98%
- Differential colony counts, GM ([2]; 5.5 Gy IR, day 4): 8
- Differential colony counts, Granulocytes ([2]; 5.5 Gy IR, day 4): 9
- Differential colony counts, Macrophages ([2]; 5.5 Gy IR, day 4): 4
- Differential colony counts, Total CFU ([2]; 5.5 Gy IR, day 4): 21
- Differential colony counts, GM ([2]; 5.5 Gy IR, day 7): 9
- Differential colony counts, Granulocytes ([2]; 5.5 Gy IR, day 7): 13
- Differential colony counts, Macrophages ([2]; 5.5 Gy IR, day 7): 2
- Differential colony counts, Total CFU ([2]; 5.5 Gy IR, day 7): 24
- Differential colony counts, GM ([2]; 5.5 Gy IR, day 12): 16
- Differential colony counts, Granulocytes ([2]; 5.5 Gy IR, day 12): 16
- Differential colony counts, Macrophages ([2]; 5.5 Gy IR, day 12): 5
- Differential colony counts, Total CFU ([2]; 5.5 Gy IR, day 12): 37
- Differential colony counts, GM ([2]; 5.5 Gy IR, day 18): 72
- Differential colony counts, Granulocytes ([2]; 5.5 Gy IR, day 18): 58
- Differential colony counts, Macrophages ([2]; 5.5 Gy IR, day 18): 16
- Differential colony counts, Total CFU ([2]; 5.5 Gy IR, day 18): 146
- Differential colony counts, GM ([2]; No IR, day 4): 111
- Differential colony counts, Granulocytes ([2]; No IR, day 4): 27
- Differential colony counts, Macrophages ([2]; No IR, day 4): 9
- Differential colony counts, Total CFU ([2]; No IR, day 4): 147
- Differential colony counts, GM ([2]; No IR, day 7): 120
- Differential colony counts, Granulocytes ([2]; No IR, day 7): 18
- Differential colony counts, Macrophages ([2]; No IR, day 7): 5
- Differential colony counts, Total CFU ([2]; No IR, day 7): 143
- Differential colony counts, GM ([2]; No IR, day 12): 116
- Differential colony counts, Granulocytes ([2]; No IR, day 12): 64
- Differential colony counts, Macrophages ([2]; No IR, day 12): 14
- Differential colony counts, Total CFU ([2]; No IR, day 12): 194
- Differential colony counts, GM ([2]; No IR, day 18): 119
- Differential colony counts, Granulocytes ([2]; No IR, day 18): 39
- Differential colony counts, Macrophages ([2]; No IR, day 18): 39
- Differential colony counts, Total CFU ([2]; No IR, day 18): 197
- protection and recovery of the bone marrow ([2]; 500 mg/kg sc -24 h and -15 min before 5.5 Gy whole body IR, sodium salt): significantly increased the recovery of the bone marrow; also recorded: significantly protected
- Percent Colony Forming Units ([2]; administration -15 min relative to IR exposure, day 4): 9%
- Percent Colony Forming Units ([2]; administration -15 min relative to IR exposure, day 7): 13%
- Percent Colony Forming Units ([2]; administration -15 min relative to IR exposure, day 12): 17%
- Percent Colony Forming Units ([2]; administration -15 min relative to IR exposure, day 18): 80%
- Percent Colony Forming Units ([2]; administration -4 h relative to IR exposure, day 4): 6%
- Percent Colony Forming Units ([2]; administration -4 h relative to IR exposure, day 7): 10%
- Percent Colony Forming Units ([2]; administration -4 h relative to IR exposure, day 12): 12%
- Percent Colony Forming Units ([2]; administration -4 h relative to IR exposure, day 18): 51%
- Percent Colony Forming Units ([2]; administration -24 h and -15 min relative to IR exposure, day 4): 14%
- Percent Colony Forming Units ([2]; administration -24 h and -15 min relative to IR exposure, day 7): 16%
- Percent Colony Forming Units ([2]; administration -24 h and -15 min relative to IR exposure, day 12): 25%
- Percent Colony Forming Units ([2]; administration -24 h and -15 min relative to IR exposure, day 18): 100%
- macrophage colony number ([2]; mice injected without radiation exposure): slight increase
- recovery of bone marrow versus vehicle ([2]; single injection 4 hours prior to radiation exposure, sodium salt): did not show a significant advantage; also recorded: not significantly increased
- protection of white blood cells from radiation exposure (white blood cells; 500 mg/kg sc -24 h and -15 min before 5.5 Gy IR, sodium salt): significantly protected
- recovery of white cell numbers (white blood cells; by 18 days): more rapid recovery
- protection against radiation lethality ([3]; 50 mg/kg to 500 mg/kg, p<0.05 vs. vehicle): dose-dependent protection
- protection from LD50/30 whole body radiation dose ([3]; 500 mg/kg pretreatment): completely and reproducibly protected
- mice protected (survival) ([3]; double injection, minus 24 hour and minus 15 minutes, prior to lethal ionizing radiation): 100%
- efficacy of solution formulation ([3]; same dosing regimen, solution formulation vs suspension): similarly effective
- mice protected (survival) ([3]; single injection at minus 15 minutes prior to lethal ionizing radiation): 100%
